The values that follow come from US20050130134A1, “Means and methods for monitoring non-nucleoside reverse transcriptase inhibitor antiretroviral therapy and guiding therapeutic decisions in the treatment HIV-AIDS” (ViroLogic, Inc., priority 2000, published 2005).

Entries after “also recorded” stand apart in the source; their conditions may differ.

The test system of assay [1] is RTV-302 patient virus (RT K103N, I135M, T200A, P225H). The experiment in a line: Phenotypic susceptibility assay, RTV-302 (patient 97-302). The assay is classed as cell-based, HIV-1. On the procedure:
(§1) Transfections were performed using a calcium-phosphate precipitation procedure. […] Cell lysates were assayed for luciferase activity (FIG. 3). […] The drug inhibition curves are shown in (FIG. 3).
This patient had been treated with d4T, indinavir and DMP-266 for a period of approximately 10 months. […] An IC50 was determined for each drug tested. Susceptibility of the patient virus to each drug was examined and compared to known patterns of susceptibility. […] Patient sample 97-302 was examined further for genotypic changes associated with the observed pattern of susceptibility.

Assay [2] relates to RTV-644 patient virus (RT K101E, G190S). The experiment in a line: Phenotypic susceptibility assay, RTV-644 (patient 97-644 / 98-644). The assay is classed as cell-based, HIV-1. The conditions noted are these: for decrease in susceptibility: RTV-644 patient virus; for change in susceptibility / resistance: RTV-644 patient virus compared to reference virus. As to the method: (§2) Resistance tests were carried out with resistance test vectors using two host cell types. Resistance test vector viral particles were produced by a first host cell (the resistance test vector host cell) that was prepared by transfecting a packaging host cell with the resistance test vector and the packaging expression vector. The resistance test vector viral particles were then used to infect a second host cell (the target host cell) in which the expression of the indicator gene is measured.
(§3) The resistance test vectors containing a functional luciferase gene cassette were constructed and host cells were transfected with the resistance test vector DNA. The resistant test vectors contained patient-derived reverse transcriptase and protease sequences that were either susceptible or resistant to the antiretroviral agents, such as nucleoside reverse transcriptase inhibitors, non-nucleoside reverse transcriptase inhibitors and protease inhibitors. The resistance test vector viral particles produced by transfecting the resistance test vector DNA into host cells, either in the presence or absence of protease inhibitors, were used to infect target host cells grown either in the absence of NRTI or NNRTI or in the presence of increasing concentrations of the drug. The amount of luciferase activity produced in infected target host cells in the presence of drug was compared to the amount of luciferase produced in infected target host cells in the absence of drug. Drug resistance was measured as the amount of drug required to inhibit by 50% the luciferase activity detected in the absence of drug (inhibitory concentration 50%, IC50). The IC50 values were determined by plotting percent drug inhibition vs. log10 drug concentration.
(§4) Host cells were seeded in 10-cm-diameter dishes and were transfected several days after plating with resistance test vector plasmid DNA and the envelope expression vector. Transfections were performed using a calcium-phosphate precipitation procedure. The cell culture media containing the DNA precipitate was replaced with fresh medium, from one to 24 hours, after transfection. […] HIV capsid protein (p24) levels in the harvested cell culture media were determined by an EIA method as described by the manufacturer (SIAC; Frederick, Md.). […] The inhibitory effect of the drug was determined using the following equation: % luciferase inhibition=1-(RLUluc[drug]÷RLUluc)×100 where RLUluc [drug] is the relative light unit of luciferase activity in infected cells in the presence of drug and RLUluc is the Relative Light Unit of luciferase activity in infected cells in the absence of drug. […]

The subject of assay [3] is RTV-300 patient virus (RT K32N, M184V, Y188L). The experiment in a line: Phenotypic susceptibility assay, RTV-300 (patient 97-300). The assay is classed as cell-based, HIV-1. As to the method: as §1
This patient had been previously treated with d4T and 3TC (NRTIs), indinavir (a PR1) and efavirenz (an NNRTI).

The test system of assay [4] is RTV-1057 patient virus (RT A98G, Y181C). The experiment in a line: Phenotypic susceptibility assay, RTV-1057 (patient 98-1057). The assay is classed as cell-based, HIV-1. On the procedure: as §1
The subject of assay [5] is RTV-955 patient virus (RT K101E, K103N, Y181C, G190A mixtures). The experiment in a line: Phenotypic susceptibility assay, RTV-955 (patient 98-955). The assay is classed as cell-based, HIV-1. On the procedure: as §1
This patient had been previously treated with nelfinavir (a PR1).

The test system of assay [6] is RTV-757 patient virus (RT V106A, V108I, V189L). Kind of assay: Phenotypic susceptibility assay, RTV-757 (patient 98-757). The assay is classed as cell-based, HIV-1. The conditions noted are these: RTV-757 patient virus (same patient as RTV-1033, later time point). On the procedure:
as §1

Assay [7] concerns RTV-1058 clone 4 (RT K103N, Y188L). Kind of assay: Phenotypic susceptibility assay, RTV-1058 clone 4. The assay is classed as cell-based, HIV-1. On the procedure: as §1
For assay [8], the system named is RTV-1058 clone 5 (RT L100I, K103N). The experiment in a line: Phenotypic susceptibility assay, RTV-1058 clone 5. The assay is classed as cell-based, HIV-1. On the procedure:
as §1

Assay [9] has as its system RTV-1058 clone 10 (RT L100I, K103N, Y188L). Kind of assay: Phenotypic susceptibility assay, RTV-1058 clone 10. The assay is classed as cell-based, HIV-1. As to the method: as §1
Assay [10] concerns patient 780 virus (RT K103N, P225H). The experiment in a line: Phenotypic susceptibility assay, patient 780 (FIG. 8B). The assay is classed as cell-based, HIV. As to the method: Phenotypic Drug Susceptibility and Resistance Profile: Patients 780. This is a second example of the third pattern of NNRTI susceptibility/resistance.
as §1

Assay [11] has as its system HIV-1 reverse transcriptase P225H plus K103N, Y181C or both. Kind of assay: Phenotypic susceptibility assay, P225H with K103N, Y181C or K103N+Y181C. The assay is classed as cell-based. The conditions noted are these: P225H added to K103N, Y181C or K103N+Y181C versus corresponding RTV lacking P225H. On the procedure: as §1
Resistance test vectors were constructed containing the P225H mutation alone and in combination with other known drug resistance mutations (K103N, Y181C) known to modulate the HIV susceptibility to NNRTIs. […] (Sakar G and Sommar S S (1994) Biotechniques 8(4), 404-407). […] The P225H mutation was also introduced into a RTV containing additional mutations at K103N, Y181C or both (K103N+Y181C).

Assay [12] concerns HIV-1 reverse transcriptase K103N + G190A (K103N-G190A-RTV). The experiment in a line: Phenotypic susceptibility assay, site directed mutant K103N-G190A-RTV. The assay is classed as cell-based. The conditions noted are these: K103N-G190-RTV (K103N + G190A); >1 loss of susceptibility. On the procedure: as §2
as §3, with “The amount of luciferase activity produced in infected target host cells in the presence of drug was compared to the amount of luciferase produced in infected target host cells in the absence of drug. Drug resistance was measured as the amount of drug required to inhibit by 50% the luciferase activity detected in the absence of drug (inhibitory concentration 50%, IC50).” left out
as §4, with “vector.” for “vector. Transfections were performed using a calcium-phosphate precipitation procedure. The cell culture media containing the DNA precipitate was replaced with fresh medium, from one to 24 hours, after transfection.”

The subject of assay [13] is HIV reverse transcriptase mutation at codon 230 alone or in combination with codon 181. The experiment in a line: Phenotypic susceptibility assay, mutation at codon 230 alone or with codon 181. The assay is classed as cell-based.

For `CC(C)Nc1cccnc1N1CCN(C(=O)c2cc3cc(NS(C)(=O)=O)ccc3[nH]2)CC1` [delavirdine], the “change in susceptibility” value in assay [1] was “modest decrease; also recorded: reduced susceptibility”; in assay [10] it was “reduced susceptibility”; in assay [11] it was “more susceptible to inhibition; also recorded: increase; also recorded: decreases the amount of delavirdine resistance”; in [13] it was “significant decrease”. For the same molecule, the decrease in susceptibility in [2] stood at 2.5 fold; in assay [3], 25 fold; in [4] it was 35 fold; in [5], 4 fold; in [6], 10 fold. Further, the “change in susceptibility / resistance” value in [2] is on record as “little or no resistance”. In addition, the loss of susceptibility in assay [7] is reported as 85 fold; in assay [8], 250 fold; in [9] it was “greater than 250 fold”. Moreover, the “fold change in susceptibility compared to wild type control RTV” value (“fold change in susceptibility” below) in [12] amounted to 40 fold.

Consider `O=C1Nc2ccc(Cl)cc2[C@@](C#CC2CC2)(C(F)(F)F)O1` [efavirenz], for which, in [12], the “fold change in susceptibility” value came to 215 fold.

With `Cc1ccnc2c1NC(=O)c1cccnc1N2C1CC1` [nevirapine], the “change in susceptibility” value was “significant decrease; also recorded: reduced susceptibility” in assay [1], “reduced susceptibility” in assay [10], “did not significantly change; also recorded: little or no change; also recorded: does not decrease the amount of nevirapine resistance” in assay [11] and “significant decrease” in assay [13]. The decrease in susceptibility in [2] is recorded as 600 fold; in assay [3], “greater than 800 fold”; in assay [4], 610 fold; in assay [5], 530 fold; in assay [6], “greater than 800 fold”. Besides, in [2], the “change in susceptibility / resistance” value is listed as “resistant; also recorded: large reduction in susceptibility”. Besides, the loss of susceptibility entry is “greater than 800 fold” in [7], 120 fold in [8] and “greater than 800 fold” in [9]. For the same molecule, the “fold change in susceptibility” value in assay [12] is given as “greater than 800 fold”.
